These results are taken from US20080085885A1, “Inhibition Of Voluntary Ethanol Consumption With Non-Peptidyl Melanocortin-4 Receptor Agonists” (priority 2004, published 2008).

Entries after “also recorded” stand apart in the source; their conditions may differ.

For experiment [1], the system named is Male Wistar rats. Kind of experiment: Alcohol deprivation effect (ADE) after 10 day deprivation (animal model of alcohol relapse). It is filed as in vivo, rat. To be noted: for Alcohol deprivation effect (ethanol consumed after 10 day deprivation): po. Here is the method:
(§1) FIG. 1. Operant training for oral ethanol across 30 minute test sessions in rats (n=8-10). Rats were trained on a continuous reinforcement (FR-1) schedule using a saccharine fading procedure and once stable levels of ethanol self-administration (10% w/v) were achieved, testing was initiated. Test 1 examined the effects of melanocortin 4 receptor agonist, Compound A, on maintenance levels of ethanol self-administration and Test 2 examined the effects of Compound A on the Alcohol Deprivation Effect (ADE).
FIG. 3. […] Operant training for oral ethanol in 30 minute test sessions in rats (n=8-10). Following the maintenance self-administration test, rats were rebaselined prior to being confined to their home-cages for a 10 day deprivation period. Melanocortin 4 receptor agonist, Compound A was administered at 0, 5, 10 or 20 mg/kg, po prior to reintroduction to the test chambers following deprivation. […] The symbol * indicates a significant difference between baseline and drug treated groups (p<0.05). The symbol # indicates a significant difference between vehicle treated (ADE) and drug treated groups (p<0.05).
Method: Methods for this experiment were as described in EXAMPLE 3. Following the maintenance ethanol self-administration experiment, rats were re-baselined and once reliable levels of alcohol-reinforced self-administration were achieved, rats were confined to their home cages for a 10-day period. Prior to reintroduction to the test chamber, animals were injected with Compound (0, 5, 10 and 20 mg/kg).

Experiment [2] addresses hMC1bR (Homo sapiens, UniProt Q01726). Kind of experiment: cAMP functional assay (agonist). The conditions noted are these: functional selectivity stated in text; 45 min. It is filed as cell-based. Here is the method: Cells (for example, CHO- or L-cells or other eukaryotic cells) expressing a human melanocortin receptor (see e.g. Yang-YK; Ollmann-MM; Wilson-BD; Dickinson-C; Yamada-T; Barsh-GS; Gantz-I; Mol-Endocrinol. 1997 March; 11(3): 274-80) were dissociated from tissue culture flasks by rinsing with Ca and Mg free phosphate buffered saline (14190-136, Life Technologies, Gaithersburg, Md.) and detached following 5 min incubation at 37° C. with enzyme free dissociation buffer (S-014-B, Specialty Media, Lavellette, N.J.). Cells were collected by centrifugation and resuspended in Earle's Balanced Salt Solution (14015-069, Life Technologies, Gaithersburg, Md.) with additions of 10 mM HEPES pH 7.5, 5 mM MgCl2, 1 mM glutamine and 1 mg/ml bovine serum albumin. Cells were counted and diluted to 1 to 5×10^6/mL. The phosphodiesterase inhibitor 3-isobutyl-1-methylxanthine was added to cells to 0.6 mM.
Agonist Assay: Test compounds were diluted in dimethylsulfoxide (DMSO) (10^−5 to 10^−10 M) and 0.1 volume of compound solution was added to 0.9 volumes of cell suspension; the final DMSO concentration was […]. After room temperature incubation for 45 min, cells were lysed by incubation at 100° C. for 5 min to release accumulated cAMP.
cAMP was measured in an aliquot of the cell lysate with the Amersham (Arlington Heights, Ill.) cAMP detection assay (RPA556). […]

Experiment [3] deals with Male Wistar rats. Description: Maintenance operant ethanol self-administration (animal model of alcohol reward). It is filed as in vivo, rat. Here is the method: as §1
FIG. 2. […] Operant training for oral ethanol in 30 minute test sessions in rats (n=8-10). Melanocortin 4 receptor agonist, Compound A, was administered at 0, 5, 10 or 20 mg/kg, po prior to testing. […] The symbol * indicates a significant difference between the vehicle and drug treated groups (p<0.05).
Animals: Male Wistar rats were used in all experiments. Body weight was 180-200 g at the start of the experiments. Rats were housed 2-3 per cage with food and water available ad libitum. Lights were on a 12-hour light/dark cycle, with lights on at 0600. All procedures met the guidelines of the National Institutes of Health Guide for the Care and Use of Laboratory Animals.
Operant Ethanol Self-Administration: Ethanol dilutions (5, 8 and 10% w/v) were prepared with 95% ethyl alcohol and tap water. Saccharin (Sigma Chemical Co., St. Louis, Mo.) was added to water or ethanol solutions to achieve a concentration of 0.2% w/v. Standard operant chambers (Med Associates, VT) housed in sound-attenuated chambers were used for ethanol self-administration. Syringe pumps dispensed ethanol and water into two stainless steel reservoirs mounted 4 cm above the floor of the chamber, centered between the two operant levers. The two retractable levers were located 4.5 cm to either side of the fluid reservoir. Fluid delivery and recording of operant responding were controlled by microcomputer. Rats were trained on a continuous reinforcement fixed-ratio 1 (FR1) schedule to self-administer oral alcohol (10% w/v, 0.1 ml per delivery) or water in 30 minute sessions. […]

Experiment [4] deals with AA rats. To be noted: AA rats with established ethanol intake; Ploj et al. 2002; cited from earlier work.

hMC1bR, sequence (Q01726 whole entry): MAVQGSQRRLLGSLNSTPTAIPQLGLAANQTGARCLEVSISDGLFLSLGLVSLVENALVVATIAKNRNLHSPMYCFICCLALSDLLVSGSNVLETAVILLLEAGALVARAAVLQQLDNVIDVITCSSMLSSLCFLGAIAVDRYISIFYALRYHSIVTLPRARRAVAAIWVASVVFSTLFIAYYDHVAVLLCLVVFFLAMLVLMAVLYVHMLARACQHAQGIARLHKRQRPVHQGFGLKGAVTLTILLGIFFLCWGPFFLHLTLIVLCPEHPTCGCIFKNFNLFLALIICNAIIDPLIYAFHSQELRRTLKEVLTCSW

Consider `CC[C@H](NC(C)=O)c1cc(Cl)ccc1C1CCN(C(=O)C2CN(C(C)(C)C)C[C@H]2c2ccc(F)cc2F)CC1` (stereo partly shown) [Compound A], for which the “Alcohol deprivation effect (ethanol consumed after 10 day deprivation)” value in experiment [1] (5 mg/kg) is “blocking the ADE; also recorded: significant attenuation of the alcohol deprivation effect”; in experiment [1] (10 mg/kg), “blocking the ADE; also recorded: significant attenuation of the alcohol deprivation effect”; in experiment [1] (20 mg/kg), “significant decrease below baseline levels of consumption; also recorded: further reduction below baseline levels”. Moreover, the Water consumption result is “not significantly altered; also recorded: not significantly changed” in experiment [1] (ADE test, any dose (5, 10, 20 mg/kg, po)) and “not significantly altered; also recorded: not significantly changed; also recorded: no significant effects on water consumption” in experiment [3] (maintenance test, any dose (5, 10, 20 mg/kg, po)). Besides, the “Alcohol deprivation effect, overall statement” value in experiment [1] (male Wistar rats, 10 day forced deprivation, FIG. 3) is on record as “reduced the increase in ethanol consumption”. Also, the “EC50 for melanocortin 4 receptor lower than for melanocortin 1 receptor” value in experiment [2] was “at least 120 fold”. For the same compound, in experiment [3] (20 mg/kg, po, vs vehicle/baseline, p<0.05), the “Ethanol self-administration (10% w/v), 30 minute session” value was “significant reductions from baseline levels; also recorded: significant reduction in ethanol self-administration”. The “Reduction of ethanol self administration” value in experiment [3] (male Wistar rats, dose dependent, FIG. 2) was “approximately 50%”.
MTII: the Voluntary ethanol drinking result in experiment [4] is reported as “significantly reduces voluntary ethanol drinking”.
